{"source": "ChEMBL document CHEMBL4507296", "about": "(2021)", "key": {"[1]": {"biological_target": "Dual specificity mitogen-activated protein kinase kinase 3 (Homo sapiens) (UniProt P46734)", "details": "Compound concentration 1000.0 nM"}, "[2]": {"biological_target": "Phosphatidylinositol 3-kinase C2 domain-containing subunit gamma (Homo sapiens) (UniProt O75747)", "sequence (O75747 whole entry, the tested form may be a part)": "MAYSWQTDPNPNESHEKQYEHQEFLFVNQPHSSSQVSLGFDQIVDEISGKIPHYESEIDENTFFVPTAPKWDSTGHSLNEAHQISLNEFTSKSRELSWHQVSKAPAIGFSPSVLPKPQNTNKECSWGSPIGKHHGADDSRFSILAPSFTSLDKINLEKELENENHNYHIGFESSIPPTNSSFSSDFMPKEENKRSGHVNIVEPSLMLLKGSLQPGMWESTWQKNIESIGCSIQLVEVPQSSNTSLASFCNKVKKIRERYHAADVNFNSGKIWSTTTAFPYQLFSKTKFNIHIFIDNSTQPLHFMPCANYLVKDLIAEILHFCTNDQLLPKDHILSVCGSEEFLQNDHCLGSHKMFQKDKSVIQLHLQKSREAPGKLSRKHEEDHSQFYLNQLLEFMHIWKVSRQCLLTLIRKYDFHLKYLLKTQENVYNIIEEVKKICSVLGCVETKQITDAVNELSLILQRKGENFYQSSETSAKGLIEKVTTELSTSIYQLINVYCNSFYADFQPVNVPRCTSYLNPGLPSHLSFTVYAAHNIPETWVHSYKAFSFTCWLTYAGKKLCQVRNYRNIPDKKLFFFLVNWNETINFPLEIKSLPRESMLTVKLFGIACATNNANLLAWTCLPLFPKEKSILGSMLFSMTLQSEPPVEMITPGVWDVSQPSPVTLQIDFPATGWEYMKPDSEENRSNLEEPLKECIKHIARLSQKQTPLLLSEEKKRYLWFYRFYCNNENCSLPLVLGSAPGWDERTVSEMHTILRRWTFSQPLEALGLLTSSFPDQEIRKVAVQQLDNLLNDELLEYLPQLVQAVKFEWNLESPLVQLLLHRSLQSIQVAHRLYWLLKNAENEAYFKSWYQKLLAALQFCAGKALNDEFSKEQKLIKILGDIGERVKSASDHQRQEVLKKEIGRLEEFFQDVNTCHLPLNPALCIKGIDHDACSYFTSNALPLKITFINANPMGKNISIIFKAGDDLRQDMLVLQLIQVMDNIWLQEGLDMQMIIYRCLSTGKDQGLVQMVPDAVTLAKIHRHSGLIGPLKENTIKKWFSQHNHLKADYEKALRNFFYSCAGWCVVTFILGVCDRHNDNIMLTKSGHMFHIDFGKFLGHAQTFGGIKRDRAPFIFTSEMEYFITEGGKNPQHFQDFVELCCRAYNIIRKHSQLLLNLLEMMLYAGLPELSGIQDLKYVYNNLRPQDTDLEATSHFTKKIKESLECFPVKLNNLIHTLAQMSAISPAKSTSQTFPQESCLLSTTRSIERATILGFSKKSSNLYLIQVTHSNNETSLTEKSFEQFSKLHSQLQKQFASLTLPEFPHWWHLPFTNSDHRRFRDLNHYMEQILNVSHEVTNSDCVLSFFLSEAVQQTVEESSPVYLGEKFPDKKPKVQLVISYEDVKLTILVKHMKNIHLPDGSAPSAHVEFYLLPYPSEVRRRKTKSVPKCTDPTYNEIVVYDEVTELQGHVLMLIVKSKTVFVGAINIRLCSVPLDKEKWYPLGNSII", "details": "Compound concentration 1000.0 nM"}, "[3]": {"tested_on": "Hepatocyte growth factor receptor (Homo sapiens), P08581 [M1250T]", "details": "Compound concentration 1000.0 nM"}, "[4]": {"biological_target": "Cyclin-dependent kinase 3 (Homo sapiens) (UniProt Q00526)", "details": "Compound concentration 1000.0 nM"}, "[5]": {"biological_target": "Mitogen-activated protein kinase kinase kinase 20 (Homo sapiens) (UniProt Q9NYL2)", "sequence (Q9NYL2 2-800 limits assumed)": "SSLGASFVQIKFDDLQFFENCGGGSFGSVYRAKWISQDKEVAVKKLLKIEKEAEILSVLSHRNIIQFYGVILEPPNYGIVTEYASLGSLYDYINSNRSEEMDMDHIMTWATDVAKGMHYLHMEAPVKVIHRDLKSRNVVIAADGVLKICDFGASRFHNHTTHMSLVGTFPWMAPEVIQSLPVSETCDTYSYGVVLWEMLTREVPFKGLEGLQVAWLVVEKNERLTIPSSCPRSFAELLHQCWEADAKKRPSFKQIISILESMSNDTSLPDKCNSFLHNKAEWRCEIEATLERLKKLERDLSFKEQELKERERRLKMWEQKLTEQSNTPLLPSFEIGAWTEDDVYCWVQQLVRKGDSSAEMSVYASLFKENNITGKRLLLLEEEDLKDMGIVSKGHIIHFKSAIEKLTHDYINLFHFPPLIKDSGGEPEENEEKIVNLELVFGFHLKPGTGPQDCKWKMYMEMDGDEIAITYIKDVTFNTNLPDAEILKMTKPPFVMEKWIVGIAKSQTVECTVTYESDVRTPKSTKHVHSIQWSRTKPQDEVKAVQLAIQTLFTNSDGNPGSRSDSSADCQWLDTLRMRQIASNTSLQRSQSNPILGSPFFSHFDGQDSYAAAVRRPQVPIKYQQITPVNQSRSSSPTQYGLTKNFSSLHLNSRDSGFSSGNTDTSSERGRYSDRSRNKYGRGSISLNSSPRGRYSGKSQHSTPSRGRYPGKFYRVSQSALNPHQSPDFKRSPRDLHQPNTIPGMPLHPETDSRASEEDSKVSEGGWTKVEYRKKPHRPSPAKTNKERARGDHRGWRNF", "details": "Compound concentration 1000.0 nM"}, "[6]": {"biological_target": "Serine/threonine-protein kinase SIK3 (Homo sapiens) (UniProt Q9Y2K2)", "details": "Compound concentration 1000.0 nM"}, "[7]": {"biological_target": "Membrane-associated tyrosine- and threonine-specific cdc2-inhibitory kinase (Homo sapiens) (UniProt Q99640)", "details": "Compound concentration 1000.0 nM"}, "[8]": {"tested_on": "Proto-oncogene tyrosine-protein kinase receptor Ret (Homo sapiens), P07949 [V804M]", "details": "Compound concentration 1000.0 nM"}, "[9]": {"biological_target": "T1, Alpha-2B adrenergic receptor (Homo sapiens) (UniProt P18089)", "T1 sequence (whole entry)": "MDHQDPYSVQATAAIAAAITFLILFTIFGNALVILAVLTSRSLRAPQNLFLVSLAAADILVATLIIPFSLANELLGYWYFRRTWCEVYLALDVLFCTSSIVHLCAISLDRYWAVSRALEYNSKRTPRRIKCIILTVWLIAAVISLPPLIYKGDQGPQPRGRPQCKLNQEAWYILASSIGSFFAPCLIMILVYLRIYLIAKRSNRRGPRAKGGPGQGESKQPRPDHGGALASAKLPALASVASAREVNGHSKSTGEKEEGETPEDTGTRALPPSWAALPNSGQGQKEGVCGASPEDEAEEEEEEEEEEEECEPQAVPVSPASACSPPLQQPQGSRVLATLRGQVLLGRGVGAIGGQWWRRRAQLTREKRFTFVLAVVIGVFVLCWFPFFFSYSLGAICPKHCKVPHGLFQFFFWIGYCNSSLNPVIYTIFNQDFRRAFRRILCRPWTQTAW", "test": "Adrenergic a2b (human) CEREP ligand profiling", "details": "Compound concentration 10.0 uM"}, "[10]": {"biological_target": "RAC-beta serine/threonine-protein kinase (Homo sapiens) (UniProt P31751)", "sequence (P31751 whole entry)": "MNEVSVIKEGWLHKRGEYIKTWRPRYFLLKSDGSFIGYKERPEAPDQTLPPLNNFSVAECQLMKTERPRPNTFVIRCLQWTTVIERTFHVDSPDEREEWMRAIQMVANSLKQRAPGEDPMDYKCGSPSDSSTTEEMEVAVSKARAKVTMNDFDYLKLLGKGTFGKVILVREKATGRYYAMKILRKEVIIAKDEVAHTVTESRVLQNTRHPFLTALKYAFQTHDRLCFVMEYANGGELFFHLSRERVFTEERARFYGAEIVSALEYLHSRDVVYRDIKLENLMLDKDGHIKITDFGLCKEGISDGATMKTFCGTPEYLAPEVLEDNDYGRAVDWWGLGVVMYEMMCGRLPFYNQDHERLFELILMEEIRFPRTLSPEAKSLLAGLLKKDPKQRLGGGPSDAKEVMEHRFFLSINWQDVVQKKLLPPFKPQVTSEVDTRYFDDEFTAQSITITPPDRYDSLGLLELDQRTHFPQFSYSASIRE", "details": "Compound concentration 1000.0 nM"}, "[11]": {"tested_on": "Phosphatidylinositol 4,5-bisphosphate 3-kinase catalytic subunit alpha isoform (Homo sapiens), P42336 [E542K]", "details": "Compound concentration 1000.0 nM"}, "[12]": {"biological_target": "D(2) dopamine receptor (Homo sapiens) (UniProt P14416)", "details": "Compound concentration 10.0 uM"}, "[13]": {"biological_target": "Mitogen-activated protein kinase kinase kinase 11 (Homo sapiens) (UniProt Q16584)", "details": "Compound concentration 1000.0 nM"}, "[14]": {"biological_target": "NT-3 growth factor receptor (Homo sapiens) (UniProt Q16288)", "details": "Compound concentration 1000.0 nM"}, "[15]": {"biological_target": "Fibroblast growth factor receptor 2 (Homo sapiens) (UniProt P21802)", "details": "Compound concentration 1000.0 nM"}, "[16]": {"biological_target": "Mitogen-activated protein kinase 13 (Homo sapiens) (UniProt O15264)", "details": "Compound concentration 1000.0 nM"}, "[17]": {"biological_target": "Interleukin-1 receptor-associated kinase 3 (Homo sapiens) (UniProt Q9Y616)", "details": "Compound concentration 1000.0 nM"}, "[18]": {"biological_target": "Substance-P receptor (Homo sapiens) (UniProt P25103)", "test": "Neurokinin 1 (human) CEREP ligand profiling", "details": "Compound concentration 10.0 uM"}, "[19]": {"tested_on": "Tyrosine-protein kinase ABL1 (Homo sapiens), P00519 [H396P]", "details": "Compound concentration 1000.0 nM"}, "[20]": {"biological_target": "Serine/threonine-protein kinase mTOR (Homo sapiens) (UniProt P42345)", "details": "Compound concentration 1000.0 nM"}, "[21]": {"tested_on": "Receptor-type tyrosine-protein kinase FLT3 (Homo sapiens), P36888 [R834Q]", "details": "Compound concentration 1000.0 nM"}, "[22]": {"tested_on": "Tyrosine-protein kinase ABL1 (Homo sapiens), P00519 [F317L]", "details": "Compound concentration 1000.0 nM"}, "[23]": {"biological_target": "Receptor tyrosine-protein kinase erbB-3 (Homo sapiens) (UniProt P21860)", "details": "Compound concentration 1000.0 nM"}, "[24]": {"biological_target": "Beta-3 adrenergic receptor (Homo sapiens) (UniProt P13945)", "details": "Compound concentration 10.0 uM"}, "[25]": {"biological_target": "SRSF protein kinase 2 (Homo sapiens) (UniProt P78362)", "details": "Compound concentration 1000.0 nM"}, "[26]": {"biological_target": "Insulin receptor-related protein (Homo sapiens) (UniProt P14616)", "details": "Compound concentration 1000.0 nM"}, "[27]": {"biological_target": "Focal adhesion kinase 1 (Homo sapiens) (UniProt Q05397)", "sequence (Q05397 2-1052 limits assumed)": "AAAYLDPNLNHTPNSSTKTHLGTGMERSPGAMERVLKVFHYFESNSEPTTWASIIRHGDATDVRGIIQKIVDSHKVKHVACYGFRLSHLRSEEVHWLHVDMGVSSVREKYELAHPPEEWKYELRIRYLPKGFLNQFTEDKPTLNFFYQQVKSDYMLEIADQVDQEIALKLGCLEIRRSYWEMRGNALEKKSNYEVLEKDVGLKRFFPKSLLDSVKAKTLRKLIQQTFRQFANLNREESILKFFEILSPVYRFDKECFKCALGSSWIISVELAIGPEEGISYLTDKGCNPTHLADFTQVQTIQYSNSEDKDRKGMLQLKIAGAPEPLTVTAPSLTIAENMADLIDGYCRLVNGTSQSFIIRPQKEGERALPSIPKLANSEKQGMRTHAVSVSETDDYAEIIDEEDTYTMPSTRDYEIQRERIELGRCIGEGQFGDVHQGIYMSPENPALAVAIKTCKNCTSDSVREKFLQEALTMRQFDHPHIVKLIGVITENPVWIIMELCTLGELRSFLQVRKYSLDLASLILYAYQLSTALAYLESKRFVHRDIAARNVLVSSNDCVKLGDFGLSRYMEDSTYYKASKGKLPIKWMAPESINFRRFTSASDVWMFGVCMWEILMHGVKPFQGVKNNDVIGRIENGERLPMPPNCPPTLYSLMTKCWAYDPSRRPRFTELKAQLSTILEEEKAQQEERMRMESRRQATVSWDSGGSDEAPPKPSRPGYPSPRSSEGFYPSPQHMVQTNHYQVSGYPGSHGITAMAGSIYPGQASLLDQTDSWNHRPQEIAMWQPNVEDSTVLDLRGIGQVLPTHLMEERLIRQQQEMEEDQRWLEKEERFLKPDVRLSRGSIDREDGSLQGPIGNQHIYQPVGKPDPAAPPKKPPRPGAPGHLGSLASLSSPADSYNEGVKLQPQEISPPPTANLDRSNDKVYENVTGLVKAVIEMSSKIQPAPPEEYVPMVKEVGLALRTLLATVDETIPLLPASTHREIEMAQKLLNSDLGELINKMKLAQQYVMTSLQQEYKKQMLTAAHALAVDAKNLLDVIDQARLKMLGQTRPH", "details": "Compound concentration 1000.0 nM"}, "[28]": {"biological_target": "Dual serine/threonine and tyrosine protein kinase (Homo sapiens) (UniProt Q6XUX3)", "details": "Compound concentration 1000.0 nM"}, "[29]": {"biological_target": "Tyrosine-protein kinase ABL1 (Homo sapiens) (UniProt P00519)", "details": "Compound concentration 1000.0 nM"}, "[30]": {"tested_on": "Phosphatidylinositol 4,5-bisphosphate 3-kinase catalytic subunit alpha isoform (Homo sapiens), P42336 [M1043I]", "details": "Compound concentration 1000.0 nM"}, "[31]": {"biological_target": "GABA-A receptor; anion channel (Rattus norvegicus) (UniProt O09028+P15431+P18506+P18508+P19969+P20236+P23574+P23576+P28471+P28473+P30191+P62813+P63079+P63138+Q91ZM7+Q9ES14)", "details": "Compound concentration 10.0 uM"}, "[32]": {"tested_on": "Receptor-type tyrosine-protein kinase FLT3 (Homo sapiens), P36888 [D835Y]", "details": "Compound concentration 1000.0 nM"}, "[33]": {"biological_target": "Cyclin-dependent kinase 14 (Homo sapiens) (UniProt O94921)", "sequence (O94921 whole entry)": "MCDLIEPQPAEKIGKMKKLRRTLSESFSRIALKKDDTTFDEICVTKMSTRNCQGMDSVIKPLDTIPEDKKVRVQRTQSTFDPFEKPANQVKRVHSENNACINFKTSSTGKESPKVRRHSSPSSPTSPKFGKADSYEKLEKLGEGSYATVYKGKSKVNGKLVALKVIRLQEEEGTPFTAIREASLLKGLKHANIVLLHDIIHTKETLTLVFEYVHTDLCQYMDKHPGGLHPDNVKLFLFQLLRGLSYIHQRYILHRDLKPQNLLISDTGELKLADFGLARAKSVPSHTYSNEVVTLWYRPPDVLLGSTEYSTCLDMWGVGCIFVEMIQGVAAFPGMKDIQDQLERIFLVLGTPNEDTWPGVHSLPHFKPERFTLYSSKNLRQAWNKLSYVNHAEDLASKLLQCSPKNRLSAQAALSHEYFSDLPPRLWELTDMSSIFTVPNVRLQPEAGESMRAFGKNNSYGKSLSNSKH", "details": "Compound concentration 1000.0 nM"}, "[34]": {"tested_on": "Proto-oncogene tyrosine-protein kinase receptor Ret (Homo sapiens), P07949 [V804L]", "details": "Compound concentration 1000.0 nM"}, "[35]": {"biological_target": "Tyrosine-protein kinase TXK (Homo sapiens) (UniProt P42681)", "details": "Compound concentration 1000.0 nM"}, "[36]": {"biological_target": "Bone morphogenetic protein receptor type-1B (Homo sapiens) (UniProt O00238)", "sequence (O00238 whole entry)": "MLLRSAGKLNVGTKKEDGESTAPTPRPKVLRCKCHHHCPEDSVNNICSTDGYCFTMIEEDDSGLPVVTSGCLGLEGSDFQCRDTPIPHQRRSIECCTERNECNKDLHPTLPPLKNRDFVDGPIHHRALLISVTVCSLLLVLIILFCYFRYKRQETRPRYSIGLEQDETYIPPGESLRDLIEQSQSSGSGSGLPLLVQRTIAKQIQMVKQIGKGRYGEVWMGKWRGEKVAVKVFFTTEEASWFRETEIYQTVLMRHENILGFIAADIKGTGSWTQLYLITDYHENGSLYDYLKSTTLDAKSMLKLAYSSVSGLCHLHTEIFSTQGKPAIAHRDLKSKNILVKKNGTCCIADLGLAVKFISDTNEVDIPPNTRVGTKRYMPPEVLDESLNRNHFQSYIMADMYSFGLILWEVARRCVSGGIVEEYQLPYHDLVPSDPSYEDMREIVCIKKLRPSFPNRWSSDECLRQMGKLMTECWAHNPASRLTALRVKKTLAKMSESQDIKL", "details": "Compound concentration 1000.0 nM"}, "[37]": {"biological_target": "Tyrosine-protein kinase ZAP-70 (Homo sapiens) (UniProt P43403)", "details": "Compound concentration 1000.0 nM"}}, "data": [{"smiles": "C[C@H](c1ccc(F)cc1)N(Cc1cccc(C(=O)O)c1)C(=O)c1cnc2ccccc2c1", "note": "[PF-05105679]", "values": [{"measurement": "residual activity", "setting": "[1]", "value": 91, "unit": "%"}, {"measurement": "residual activity", "setting": "[2]", "value": 100, "unit": "%"}, {"measurement": "residual activity", "setting": "[3]", "value": 93, "unit": "%"}, {"measurement": "residual activity", "setting": "[4]", "value": 98, "unit": "%"}, {"measurement": "residual activity", "setting": "[5]", "value": 100, "unit": "%"}, {"measurement": "residual activity", "setting": "[6]", "value": 80, "unit": "%"}, {"measurement": "residual activity", "setting": "[7]", "value": 68, "unit": "%"}, {"measurement": "residual activity", "setting": "[8]", "value": 100, "unit": "%"}, {"measurement": "inhibition", "setting": "[9]", "value": 21, "unit": "%"}, {"measurement": "residual activity", "setting": "[10]", "value": 87, "unit": "%"}, {"measurement": "residual activity", "setting": "[11]", "value": 49, "unit": "%"}, {"measurement": "inhibition", "setting": "[12]", "value": 7.61, "unit": "%"}, {"measurement": "residual activity", "setting": "[13]", "value": 100, "unit": "%"}, {"measurement": "residual activity", "setting": "[14]", "value": 92, "unit": "%"}, {"measurement": "residual activity", "setting": "[15]", "value": 74, "unit": "%"}, {"measurement": "residual activity", "setting": "[16]", "value": 95, "unit": "%"}, {"measurement": "residual activity", "setting": "[17]", "value": 100, "unit": "%"}, {"measurement": "inhibition", "setting": "[18]", "value": 18, "unit": "%"}, {"measurement": "residual activity", "setting": "[19]", "value": 100, "unit": "%"}, {"measurement": "residual activity", "setting": "[20]", "value": 93, "unit": "%"}, {"measurement": "residual activity", "setting": "[21]", "value": 100, "unit": "%"}, {"measurement": "residual activity", "setting": "[22]", "value": 99, "unit": "%"}, {"measurement": "residual activity", "setting": "[23]", "value": 68, "unit": "%"}, {"measurement": "inhibition", "setting": "[24]", "value": 2.81, "unit": "%"}, {"measurement": "residual activity", "setting": "[25]", "value": 98, "unit": "%"}, {"measurement": "residual activity", "setting": "[26]", "value": 84, "unit": "%"}, {"measurement": "residual activity", "setting": "[27]", "value": 93, "unit": "%"}, {"measurement": "residual activity", "setting": "[28]", "value": 100, "unit": "%"}, {"measurement": "residual activity", "setting": "[29]", "value": 100, "unit": "%"}, {"measurement": "residual activity", "setting": "[30]", "value": 100, "unit": "%"}, {"measurement": "inhibition", "setting": "[31]", "value": 20.8, "unit": "%"}, {"measurement": "residual activity", "setting": "[32]", "value": 100, "unit": "%"}, {"measurement": "residual activity", "setting": "[33]", "value": 100, "unit": "%"}, {"measurement": "residual activity", "setting": "[34]", "value": 85, "unit": "%"}, {"measurement": "residual activity", "setting": "[35]", "value": 100, "unit": "%"}, {"measurement": "residual activity", "setting": "[36]", "value": 95, "unit": "%"}, {"measurement": "residual activity", "setting": "[37]", "value": 96, "unit": "%"}]}]}
